This data set deals with rodent carcinogenicity bioassays, tumor incidence. Briefly: CCRIS carcinogenicity studies. In outline: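 NCI-built, expert-reviewed records of carcinogenicity and related test outcomes (mutagenicity, tumor promotion/inhibition) compiled from published and report sources, historical span 1985-2011, not updated.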

Calls of active or inactive are those of the source. How the calls were made is not given here.

As for `COc1ccc(CCN2CCC(Nc3nc4ccccc4n3Cc3ccc(F)cc3)CC2)cc1`, the carcinogen call runs as follows: (Species: MOUSE, Strain/Sex: SWISS/FEMALE, Route: ORAL, Dose: 0, 2.5, 10, 40 MG/100 G OF DIET FOR DURATION OF STUDY (STUDY DURATION: 18 Mo), Dose: 0, 2.5, 10, 40 MG/100 G OF DIET FOR DURATION OF STUDY (STUDY DURATION: 18 Mo)) “inactive; negative”; (Species: MOUSE, Strain/Sex: SWISS/MALE, Route: ORAL, Dose: 0, 2.5, 10, 40 MG/100 G OF DIET FOR DURATION OF STUDY (STUDY DURATION: 18 MO), Dose: 0, 2.5, 10, 40 MG/100 G OF DIET FOR DURATION OF STUDY (STUDY DURATION: 18 MO)) “inactive; negative”; (Species: RAT, Strain/Sex: WISTAR/FEMALE, Route: ORAL, Dose: 0, 5, 20, 80 MG/100 G OF DIET FOR DURATION OF STUDY (STUDY DURATION: 2 YR), Dose: 0, 5, 20, 80 MG/100 G OF DIET FOR DURATION OF STUDY (STUDY DURATION: 2 YR)) “inactive; negative”; (Species: RAT, Strain/Sex: WISTAR/MALE, Route: ORAL, Dose: 0, 5, 20, 80 MG/100 G OF DIET FOR DURATION OF STUDY (STUDY DURATION: 2 YR), Dose: 0, 5, 20, 80 MG/100 G OF DIET FOR DURATION OF STUDY (STUDY DURATION: 2 YR)) “inactive; negative”.
As to `ClC[C@H]1O[C@@H]1Cl`, the carcinogen call (Species: MOUSE, Strain/Sex: ICR/FEMALE, Route: DERMAL, Dose: 10 MG IN 0.1 ML ACETONE 3/WK FOR LIFE, Tumor Site: Type of Lesion: INTEGUMENTARY SYSTEM (SKIN): PAPILLOMA, SQUAMOUS CELL CARCINOMA) is “active; positive” and the carcinogen call (Species: MOUSE, Strain/Sex: ICR/FEMALE, Route: SUBCUTANEOUS, Dose: 500 UG IN 0.05 ML TRICAPRYLIN 1/WK FOR LIFE, Tumor Site: Type of Lesion: INJECTION SITE: FIBROSARCOMA) was “active; positive”.
As to `CC(N)=S`, the carcinogen call (Species: MOUSE, Strain/Sex: SWISS, Route: ORAL, Dose: 0.03% IN DIET, Tumor Site: Type of Lesion: LIVER: CARCINOMA) was “active; positive” and the carcinogen call (Species: RAT, Strain/Sex: WISTAR/MALE,FEMALE, Route: ORAL, Dose: 0.032% IN DIET, Tumor Site: Type of Lesion: LIVER: BILE DUCT TUMOR, NOS) is “active; positive”.
As to `CCCC(OC(C)=O)N(CCCC(=O)OC)N=O` (configuration not stated), the carcinogen call (Species: RAT, Strain/Sex: F344/MALE,FEMALE, Route: SUBCUTANEOUS, Dose: 38 UMOL/KG IN OLIVE OIL 1/WK FOR 10 WK, Tumor Site: Type of Lesion: INJECTION SITE: MALIGNANT FIBROUS HISTIOCYTOMA) is “active; positive”.
As to `O=[N+]([O-])c1ccc2ccc3cccc4c5ccccc5c1c2c34`, under “Species: MOUSE, Strain/Sex: B6C3F1/MALE, Route: INTRAPERITONEAL, Dose: 0, 400 NMOL IN 35 µL DMSO ON DAYS 1 (1/7 TOTAL DOSE), 8 (2/7 TOTAL DOSE), AND 15 (4/7 TOTAL DOSE) AFTER BIRTH (STUDY DUR”, the carcinogen call was “inactive; negative”.
For `NC(N)=S`, for the setting “Species: RAT, Route: ORAL, Tumor Site: Type of Lesion: LIVER, THYROID GLAND, EAR (ZYMBAL GLAND), Tumor Site: Type of Lesion: LIVER, THYROID GLAND, EAR (ZYMBAL GLAND)”, the carcinogen call is “active; positive”.
With `S=C1NCCN1`, the carcinogen call is “active; positive” (Species: MOUSE, Strain/Sex: B6AKF1/MALE,FEMALE, Route: GAVAGE/ORAL, Dose: 215 MG/KG IN GELATIN FROM DAY 7-28 OF LIFE THEN 646 PPM IN DIET, Tumor Site: Type of Lesion: LIVER: HEPATOMA, LYMPHATIC SYSTEM: LYMPHOMA); “active; positive” (Species: MOUSE, Strain/Sex: B6C3F1/FEMALE, Route: ORAL, Dose: 0, 100, 330, 1000 PPM IN FEED FOR 24 MO, ADMINISTRATION BEGUN AT 8 WK OF AGE TO ANIMALS EXPOSED PERINATALLY BY ORAL, Dose: 0, 100, 330, 1000 PPM IN FEED FOR 24 MO, ADMINISTRATION BEGUN AT 8 WK OF AGE TO ANIMALS EXPOSED PERINATALLY BY ORAL, Tumor Site: Type of Lesion: LIVER: HEPATOCELLULAR ADENOMA, HEPATOCELLULAR CARCINOMA, PITUITARY GLAND, PARS DISTALIS: ADENOMA, THYROID GLAND: FOLLICU, Tumor Site: Type of Lesion: LIVER: HEPATOCELLULAR ADENOMA, HEPATOCELLULAR CARCINOMA, PITUITARY GLAND, PARS DISTALIS: ADENOMA, THYROID GLAND: FOLLICU); “active; positive” (Species: MOUSE, Strain/Sex: B6C3F1/FEMALE, Route: ORAL, Dose: 0, 330, 1000 PPM IN FEED FOR 24 MO (STUDY DURATION: 2 YR), Dose: 0, 330, 1000 PPM IN FEED FOR 24 MO (STUDY DURATION: 2 YR), Tumor Site: Type of Lesion: LIVER: HEPATOCELLULAR ADENOMA, HEPATOCELLULAR CARCINOMA, PITUITARY GLAND, PARS DISTALIS: ADENOMA, THYROID GLAND: FOLLICU, Tumor Site: Type of Lesion: LIVER: HEPATOCELLULAR ADENOMA, HEPATOCELLULAR CARCINOMA, PITUITARY GLAND, PARS DISTALIS: ADENOMA, THYROID GLAND: FOLLICU); “active; positive” (Species: MOUSE, Strain/Sex: B6C3F1/MALE,FEMALE, Route: GAVAGE/ORAL, Dose: 215 MG/KG IN GELATIN FROM DAY 7-28 OF LIFE THEN 646 PPM IN DIET, Tumor Site: Type of Lesion: LIVER: HEPATOMA, LYMPHATIC SYSTEM: LYMPHOMA); “active; positive” (Species: MOUSE, Strain/Sex: B6C3F1/MALE, Route: ORAL, Dose: 0, 100, 330, 1000 PPM IN FEED FOR 24 MO, ADMINISTRATION BEGUN AT 8 WK OF AGE TO ANIMALS EXPOSED PERINATALLY BY ORAL, Dose: 0, 100, 330, 1000 PPM IN FEED FOR 24 MO, ADMINISTRATION BEGUN AT 8 WK OF AGE TO ANIMALS EXPOSED PERINATALLY BY ORAL, Tumor Site: Type of Lesion: LIVER: HEPATOCELLULAR CARCINOMA, HEPATOCELLULAR ADENOMA OR CARCINOMA, THYROID GLAND: FOLLICULAR CELL ADENOMA, FOLLICULAR); “active; positive” (Species: MOUSE, Strain/Sex: B6C3F1/MALE, Route: ORAL, Dose: 0, 330, 1000 PPM IN FEED FOR 24 MO (STUDY DURATION: 2 YR), Dose: 0, 330, 1000 PPM IN FEED FOR 24 MO (STUDY DURATION: 2 YR), Tumor Site: Type of Lesion: LIVER: HEPATOCELLULAR CARCINOMA, PITUITARY GLAND, PARS DISTALIS: ADENOMA, THYROID GLAND: FOLLICULAR CELL ADENOMA, Tumor Site: Type of Lesion: LIVER: HEPATOCELLULAR CARCINOMA, PITUITARY GLAND, PARS DISTALIS: ADENOMA, THYROID GLAND: FOLLICULAR CELL ADENOMA). The carcinogen call is, setting by setting: (Species: RAT, Strain/Sex: F344/FEMALE, Route: ORAL, Dose: 0, 25, 83, 250 PPM IN FEED FOR 24 MO, ADMINISTRATION BEGUN AT 8 WK OF AGE TO ANIMALS EXPOSED PERINATALLY BY ORAL DOS, Dose: 0, 25, 83, 250 PPM IN FEED FOR 24 MO, ADMINISTRATION BEGUN AT 8 WK OF AGE TO ANIMALS EXPOSED PERINATALLY BY ORAL DOS, Tumor Site: Type of Lesion: THYROID GLAND: FOLLICULAR CELL ADENOMA, FOLLICULAR CELL CARCINOMA) “active; positive”; (Species: RAT, Strain/Sex: F344/FEMALE, Route: ORAL, Dose: 0, 83, 250 PPM IN FEED FOR 24 MO (STUDY DURATION: 2 YR), Dose: 0, 83, 250 PPM IN FEED FOR 24 MO (STUDY DURATION: 2 YR), Tumor Site: Type of Lesion: THYROID GLAND: FOLLICULAR CELL ADENOMA, FOLLICULAR CELL CARCINOMA) “active; positive”; (Species: RAT, Strain/Sex: F344/MALE, Route: ORAL, Dose: 0, 25, 83, 250 PPM IN FEED FOR 24 MO, ADMINISTRATION BEGUN AT 8 WK OF AGE TO ANIMALS EXPOSED PERINATALLY BY DOSES TO, Dose: 0, 25, 83, 250 PPM IN FEED FOR 24 MO, ADMINISTRATION BEGUN AT 8 WK OF AGE TO ANIMALS EXPOSED PERINATALLY BY DOSES TO, Tumor Site: Type of Lesion: THYROID GLAND: FOLLICULAR CELL ADENOMA, FOLLICULAR CELL CARCINOMA) “active; positive”; (Species: RAT, Strain/Sex: F344/MALE, Route: ORAL, Dose: 0, 83, 250 PPM IN FEED FOR 24 MO (STUDY DURATION: 2 YR), Dose: 0, 83, 250 PPM IN FEED FOR 24 MO (STUDY DURATION: 2 YR), Tumor Site: Type of Lesion: THYROID GLAND: FOLLICULAR CELL ADENOMA, FOLLICULAR CELL CARCINOMA) “active; positive”; (Species: RAT, Strain/Sex: STRAIN-CD/MALE,FEMALE, Route: ORAL, Dose: 175, 350 PPM IN DIET FOR 78 WK, Tumor Site: Type of Lesion: THYROID GLAND: FOLLICULAR CARCINOMA) “active; positive”.

The values above are taken from PubChem BioAssay AID1259411 (Chemical Carcinogenesis Research Information System (CCRIS), 2018).
